Reference: patent US10316017B2, “COT modulators and methods of use thereof” (Gilead Sciences, Inc., priority 2015, dated 2019)

Assays:
[1] = tested on: TNFα production in LPS-stimulated human monocytes; assay: Cot Monocyte TNFα Cell Based Assay; conditions: Homo sapiens, Monocyte, TNFα in LPS-stimulated human monocytes; read-out: EC50 TNF
How it was run: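 Human monocytes (5,000 cells/well) pretreated with compound for 1 hour at 37° C (0.5% DMSO), then stimulated with 50 pg/ml LPS for 4 hours. Total TNFα measured by TR-FRET after overnight antibody incubation at room temp, expressed as percent of control between unstimulated and stimulated cells.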

[2] = molecular target: T1, human Cot catalytic domain (30-397 amino acids) (Homo sapiens, UniProt P41279); assay: High Throughput Cot Biochemical Assay (KinEASE TR-FRET); conditions: Cot biochemical HTRF (KinEASE TR-FRET) assay; read-out: IC50 HTRF
T1 construct: Purified recombinant human Cot catalytic domain (30-397 amino acids) was purchased from Cama Biosciences; purchased Cama Biosciences (so in the source)
T1 sequence (P41279 30-397): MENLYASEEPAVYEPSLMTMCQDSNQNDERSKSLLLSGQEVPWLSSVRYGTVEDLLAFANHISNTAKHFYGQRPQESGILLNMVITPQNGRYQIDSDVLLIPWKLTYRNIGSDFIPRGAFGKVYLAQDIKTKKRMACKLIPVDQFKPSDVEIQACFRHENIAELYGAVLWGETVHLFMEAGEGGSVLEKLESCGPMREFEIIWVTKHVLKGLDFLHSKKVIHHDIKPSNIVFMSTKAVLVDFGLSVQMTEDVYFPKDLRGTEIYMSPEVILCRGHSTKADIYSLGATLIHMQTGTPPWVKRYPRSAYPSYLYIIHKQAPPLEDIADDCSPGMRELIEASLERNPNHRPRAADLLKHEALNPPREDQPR
How it was run: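 Recombinant human Cot catalytic domain (aa 30-397), 5 nM, with 1 μM STK3 peptide and 400 μM ATP in MOPS pH 7.0 buffer with MgOAc, DTT, BSA, NP-40, glycerol, 0.1% DMSO. Phosphorylated XL665-peptide detected by Eu-[…] antibody TR-FRET.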

**Q.** With CC(C)(C)N1CCC(n2cc([C@@H](Nc3cc(Cl)c4ncc(C#N)c(Nc5cccc(F)c5)c4c3)c3ccc(Cl)cc3)nn2)CC1 [Example 767, (S)-6-(((1-(1-(tert-butyl)piperidin-4-yl)-1H-1,2,3-triazol-4-yl)(4-chlorophenyl)methyl)amino)-8-chloro-4-((3-fluorophenyl)amino)quinoline-3-carbonitrile] as the compound, how does the EC50 [1] read?
**A.** 1270 nM

**Q.** And the IC50 [2]?
**A.** 48 nM

**Q.** Which EC50 [1] does the source give for CC(C)(C)N1CCC(n2cc([C@@H](Nc3cc(Cl)c4ncc(C#N)c(Nc5ccccc5F)c4c3)c3ccc(Cl)cc3)nn2)CC1 [Example 768, (S)-6-(((1-(1-(tert-butyl)piperidin-4-yl)-1H-1,2,3-triazol-4-yl)(4-chlorophenyl)methyl)amino)-8-chloro-4-((2-fluorophenyl)amino)quinoline-3-carbonitrile] here?
**A.** 2500 nM

**Q.** And the IC50 [2]?
**A.** 83 nM

**Q.** What does the source list for CCN1CC2(CC(n3cc([C@@H](Nc4cc(Cl)c5ncc(C#N)c(Nc6ccc(F)c(Cl)c6)c5c4)c4ccccc4)nn3)C2)C1 [Example 774]?
**A.** EC50 [1]: 127 nM; IC50 [2]: 3 nM

**Q.** CC(C)(C)N1CCC(n2cc([C@@H](Nc3cc(Cl)c4ncc(C#N)c(Nc5ccccc5)c4c3)c3ccc(Cl)cc3)nn2)CC1 [Example 777, (S)-6-(((1-(1-(tert-butyl)piperidin-4-yl)-1H-1,2,3-triazol-4-yl)(4-chlorophenyl)methyl)amino)-8-chloro-4-(phenylamino)quinoline-3-carbonitrile] was tested. Which EC50 [1] did it give?
**A.** 6970 nM

**Q.** What about the IC50 [2] of the same compound?
**A.** 72 nM

**Q.** N#Cc1cnc2c(Cl)cc(N[C@@H](c3ccccc3)c3cn(C4CCNCC4)nn3)cc2c1Nc1ccc(F)c(Cl)c1 [Example 778, (S)-8-chloro-4-((3-chloro-4-fluorophenyl)amino)-6-((phenyl (1-(piperidin-4-yl)-1H-1,2,3-triazol-4-yl)methyl)amino) quinoline-3-carbonitrile] was tested. Which EC50 [1] did it give?
**A.** 305 nM

**Q.** And the IC50 [2]?
**A.** 2 nM

**Q.** Which EC50 [1] does the source give for CCN1CCC(n2cc([C@@H](Nc3ccc4ncc(C#N)c(Nc5ccc(F)c(Cl)c5)c4c3)c3ccccc3)nn2)CC1 [Example 779, (S)-4-((3-chloro-4-fluorophenyl)amino)-6-(((1-(1 ethylpiperidin-4-yl)-1H-1,2,3-triazol-4-yl)(phenyl)methyl)amino)quinoline-3-carbonitrile] here?
**A.** 196 nM

**Q.** And the IC50 [2]?
**A.** 4 nM

**Q.** CC(C)(C)N1CCC(n2cc([C@@H](Nc3cc(Cl)c4ncc(C#N)c(Nc5cncc(Cl)c5)c4c3)c3ccccc3)nn2)CC1 [Example 780, (S)-6-(((1-(1-(tert-butyl)piperidin-4-yl)-1H-1,2,3-triazol-4-yl)(phenyl)methyl)amino)-8-chloro-4-((5-chloropyridin-3-yl)amino)quinoline-3-carbonitrile] was tested. Which EC50 [1] did it give?
**A.** 865 nM

**Q.** What about the IC50 [2] of the same compound?
**A.** 20 nM

**Q.** With CC(C)(C)N1CCC(n2cc([C@@H](Nc3cc(Cl)c4ncc(C#N)c(Nc5ccc(Cl)c(Cl)c5F)c4c3)c3ccccc3)nn2)CC1 [Example 781, (S)-6-(((1-(1-(tert-butyl)piperidin-4-yl)-1H-1,2,3-triazol-4-yl)(phenyl)methyl)amino)-8-chloro-4-((3,4-dichloro-2-fluorophenyl)amino)quinoline-3-carbonitrile] as the compound, how does the EC50 [1] read?
**A.** 597 nM

**Q.** What about the IC50 [2] of the same compound?
**A.** 11 nM

**Q.** N#Cc1cnc2c(Cl)cc(NC(c3ccc(F)cc3)c3csnn3)cc2c1Nc1ccc(F)c(Cl)c1 (stereo not shown) [Example 784, 8-chloro-4-((3-chloro-4-fluorophenyl)amino)-6-(((4-fluorophenyl)(1,2,3-thiadiazol-4-yl)methyl)amino)quinoline-3-carbonitrile] was tested. Which EC50 [1] did it give?
**A.** 1990 nM

**Q.** What about the IC50 [2] of the same compound?
**A.** 249 nM

**Q.** What does the source list for CC(C)(C)N1CCC(n2cc([C@@H](Nc3cc(Cl)c4ncc(C#N)c(Nc5ccc(OCc6ccccn6)c(Cl)c5)c4c3)c3ccccc3)nn2)CC1 [Example 786, (S)-6-(((1-(1-(tert-butyl)piperidin-4-yl)-1H-1,2,3-triazol-4-yl)(phenyl)methyl)amino)-8-chloro-4-((3-chloro-4-(pyridin-2-ylmethoxy)phenyl)amino)quinoline-3-carbonitrile]?
**A.** EC50 [1]: 6630 nM; IC50 [2]: 173 nM

**Q.** With CC(C)(C)N1CCC(n2cc([C@@H](Nc3cc(Cl)c4ncc(C#N)c(Nc5ccc(F)c(F)c5)c4c3)c3ccccc3)nn2)CC1 [Example 787, (S)-6-(((1-(1-(tert-butyl)piperidin-4-yl)-1H-1,2,3-triazol-4-yl)(phenyl)methyl)amino)-8-chloro-4-((3,4-difluorophenyl)amino)quinoline-3-carbonitrile] as the compound, how does the EC50 [1] read?
**A.** 362 nM

**Q.** What about the IC50 [2] of the same compound?
**A.** 11 nM

**Q.** Which EC50 [1] does the source give for CC1(C)CC(n2cc([C@@H](Nc3cc(Cl)c4ncc(C#N)c(Nc5ccc(F)c(Cl)c5)c4c3)c3ccccc3)nn2)CCN1 (stereo partly drawn) [Example 790, 8-chloro-4-((3-chloro-4-fluorophenyl)amino)-6-(((1S)-(1-(2,2-dimethylpiperidin-4-yl)-1H-1,2,3-triazo1-4-yl)(phenyl)methyl)amino) quinoline-3-carbonitrile] here?
**A.** 305 nM

**Q.** What about the IC50 [2] of the same compound?
**A.** 4 nM

**Q.** How did the EC50 [1] turn out when CCN1CCC(n2cc([C@@H](Nc3cc(F)c4ncc(C#N)c(Nc5ccc(F)c(Cl)c5)c4c3)c3ccccc3)nn2)CC1 [Example 791, (S)-4-((3-chloro-4-fluorophenyl)amino)-6-(((1-(1-ethylpiperidin-4-yl)-1H-1,2,3-triazol-4-yl)(phenyl)methyl)amino)-8-fluoroquinoline-3-carbonitrile] was run?
**A.** 50 nM

**Q.** And the IC50 [2]?
**A.** 3 nM

**Q.** How did the EC50 [1] turn out when CCN1CCC(n2cc([C@H](c3ccccc3)N(CC)c3cc(Cl)c4ncc(C#N)c(Nc5ccc(F)c(Cl)c5)c4c3)nn2)CC1 [Example 792, (S)-8-chloro-4-((3-chloro-4-fluorophenyl)amino)-6-(ethyl((1-(1-ethylpiperidin-4-yl)-1H-1,2,3-triazol-4-yl)(phenyl)methyl)amino) quinoline-3-carbonitrile] was run?
**A.** 91 nM

**Q.** And the IC50 [2]?
**A.** 5 nM

**Q.** Which results are given for CN(C)CCn1cc([C@@H](Nc2cc(Cl)c3ncc(C#N)c(Nc4ccc(F)c(Cl)c4)c3c2)c2ccccc2)nn1 [Example 793, (S)-8-chloro-4-((3-chloro-4-fluorophenyl)amino)-6-(((1-(2-(dimethylamino)ethyl)-1H-1,2,3-triazol-4-yl)(phenyl)methyl)amino) quinoline-3-carbonitrile]?
**A.** EC50 [1]: 209 nM; IC50 [2]: 7 nM

**Q.** Which results are given for N#Cc1cnc2c(F)cc(N[C@@H](c3ccccc3)c3cn(C4CCNCC4)nn3)cc2c1Nc1ccc(F)c(Cl)c1 [Example 794, (S)-4-((3-chloro-4-fluorophenyl)amino)-8-fluoro-6-((phenyl(1-(piperidin-4-yl)-1H-1,2,3-triazol-4-yl)methyl)amino)quinoline-3-carbonitrile]?
**A.** EC50 [1]: 441 nM; IC50 [2]: 4 nM

**Q.** With COCCn1cc([C@@H](Nc2cc(Cl)c3ncc(C#N)c(Nc4ccc(F)c(Cl)c4)c3c2)c2ccccc2)nn1 [Example 795, (S)-8-chloro-4-((3-chloro-4-fluorophenyl)amino)-6-(((1-(2-methoxyethyl)-1H-1,2,3-triazol-4-yl)(phenyl)methyl)amino)quinoline-3-carbonitrile] as the compound, how does the EC50 [1] read?
**A.** 314 nM

**Q.** And the IC50 [2]?
**A.** 13 nM

**Q.** How did the EC50 [1] turn out when N#Cc1cnc2c(Cl)cc(N[C@@H](c3ccccc3)c3cn(CCN)nn3)cc2c1Nc1ccc(F)c(Cl)c1 [Example 796, (S)-6-(((1-(2-aminoethyl)-1H-1,2,3-triazol-4-yl)(phenyl)methyl)amino)-8-chloro-4-((3-chloro-4-fluorophenyl)amino)quinoline-3-carbonitrile] was run?
**A.** 200 nM

**Q.** And the IC50 [2]?
**A.** 2 nM

**Q.** CN(C)CCCn1cc([C@@H](Nc2cc(Cl)c3ncc(C#N)c(Nc4ccc(F)c(Cl)c4)c3c2)c2ccccc2)nn1 [Example 797, (S)-8-chloro-4-((3-chloro-4-fluorophenyl)amino)-6-(((1-(3-(dimethylamino)propyl)-1H-1,2,3-triazol-4-yl)(phenyl)methyl)amino) quinoline-3-carbonitrile] was tested. Which EC50 [1] did it give?
**A.** 107 nM

**Q.** And the IC50 [2]?
**A.** 3 nM

**Q.** What does the source list for N#Cc1cnc2c(Cl)cc(N[C@@H](c3ccc(Cl)cc3)c3cn(C4CCN(C5COC5)CC4)nn3)cc2c1Nc1ccc(F)c(Cl)c1 [Example 802, (S)-8-chloro-4-((3-chloro-4-fluorophenyl)amino)-6-(((4-chlorophenyl)(1-(1-(oxetan-3-yl)piperidin-4-yl)-1H-1,2,3-triazol-4-yl)methyl)amino)quinoline-3-carbonitrile]?
**A.** EC50 [1]: 963 nM; IC50 [2]: 78 nM

**Q.** For CC(C)(C)N1CCC(n2cc([C@@H](Nc3cc(Cl)c4ncc(C#N)c(Nc5ccc(F)c(Cl)c5)c4c3)c3ccc(Cl)cc3)nn2)CC1 [Example 803, (S)-6-(((1-(1-(tert-butyl)piperidin-4-yl)-1H-1,2,3-triazol-4-yl)(4-chlorophenyl)methyl)amino)-8-chloro-4-((3-chloro-4-fluorophenyl)amino)quinoline-3-carbonitrile], which EC50 [1] is on record?
**A.** 206 nM

**Q.** What about the IC50 [2] of the same compound?
**A.** 7 nM

**Q.** Which EC50 [1] does the source give for Cc1nonc1C(Nc1cc(Cl)c2ncc(C#N)c(Nc3ccc(F)c(Cl)c3)c2c1)c1ccc(F)cc1 (stereo not shown) [Example 805, 8-chloro-4-((3-chloro-4-fluorophenyl)amino)-6-(((4-fluorophenyl)(4-methyl-1,2,5-oxadiazol-3-yl)methyl)amino)quinoline-3-carbonitrile] here?
**A.** > 1000 nM

**Q.** And the IC50 [2]?
**A.** 588 nM

**Q.** For N#Cc1cnc2c(Cl)cc(NC(c3ccc(F)cc3)c3cscn3)cc2c1Nc1ccc(F)c(Cl)c1 (stereo not shown) [Example 806, 8-chloro-4-((3-chloro-4-fluorophenyl)amino)-6-(((4-fluorophenyl)(thiazol-4-yl)methyl)amino)quinoline-3-carbonitrile], which EC50 [1] is on record?
**A.** > 50000 nM

**Q.** What about the IC50 [2] of the same compound?
**A.** 850 nM
